Among the data in patent US5138069A (E. I. Du Pont de Nemours and Company, priority 1988, dated 1992) are minimal effective dose values, retold here.

In this test the test system is Renal Hypertensive Rats. The test is described as follows: Antihypertensive effects in renal hypertensive rats. Particulars: Rattus norvegicus; for minimal effective dose at 10 mg/kg / minimal effective dose at 100 mg/kg: Table 25; for minimal effective dose at 10 mg/kg / minimal effective dose at 3 mg/kg: intravenous; for minimal effective dose at 10 mg/kg: 10 mg/kg or less; for minimal effective dose at 100 mg/kg / minimal effective dose at 30 mg/kg: oral; for minimal effective dose at 100 mg/kg: 100 mg/kg or less; for minimal effective dose at 30 mg/kg / minimal effective dose at 3 mg/kg: Table 26. The test is classed as in vivo. As to the method:
This procedure increases blood pressure by increasing renin production with consequent elevation of AII levels. Compounds are administered orally at 100 mg/kg and/or intravenously via a cannula in the jugular vein at 10 mg/kg. Arterial blood pressure is continuously measured directly through a carotid artery cannula and recorded using a pressure transducer and a polygraph. Blood pressure levels after treatment are compared to pretreatment levels to determine the antihypertensive effects of the compounds (See Table 25).
Compounds listed in Table 26 were tested in the same manner as described for Table 25, except that in the test for antihypertensive effects in renal hypertensive rats, the compounds were administered orally at 30 mg/kg and intravenously at 3 mg/kg.

Structures are written as SMILES.

In the case of `CCCCc1nc(Cl)c(COC)n1Cc1ccc(NC(=O)c2ccccc2C(=O)O)cc1` [Example 4, 2-Butyl-1-[4-(2-carboxybenzamido)benzyl]-4-chloro-5-(methoxymethyl)-imidazole], under “tested as sodium salt”, the minimal effective dose at 10 mg/kg was less than 10 mg/kg and the minimal effective dose at 100 mg/kg is greater than 100 mg/kg. `CCCc1nc(C(F)(F)C(F)(F)F)c(C=O)n1Cc1ccc(-c2ccccc2-c2nnn[nH]2)cc1` [Example 140G] gave a minimal effective dose at 30 mg/kg of less than 30 mg/kg. Regarding `CCCCc1nc(Cl)c(C=O)n1Cc1ccc(-c2ccccc2C(=O)O)cc1` [Example 125, 1-[(2'-carboxybiphenyl-4-yl)methyl]-2-butyl-4-chloroimidazole-5-carboxaldehyde], the minimal effective dose at 10 mg/kg is less than 10 mg/kg and the minimal effective dose at 100 mg/kg was less than 100 mg/kg.

With `CCCCc1nc(Cl)c(COC)n1Cc1ccc(-c2ccccc2C(=O)O)cc1` [Example 98], under “tested as sodium salt”, the minimal effective dose at 10 mg/kg was less than 10 mg/kg and the minimal effective dose at 100 mg/kg is less than 100 mg/kg. `CCCCc1nc(Cl)c(CO)n1Cc1ccc(-c2ccccc2NS(=O)(=O)C(F)(F)F)cc1` [Example 144] had a minimal effective dose at 10 mg/kg of less than 10 mg/kg and a minimal effective dose at 100 mg/kg of less than 100 mg/kg. The corresponding values for `CCCCc1nc(CO)c(Cl)n1Cc1ccc(-c2ccccc2-c2n[nH]c(C(F)(F)F)n2)cc1` [Example 341, 2-n-Butyl-5-chloro-4-hydroxy-methyl-1-[(2'-(5-trifluoromethyl-1,2,4-triazol-3-yl)biphenyl-4-yl)methyl]imidazole] are less than 10 mg/kg and less than 100 mg/kg. As for `CCCCc1nc(Cl)c(COC)n1Cc1ccc(-c2ccccc2NS(=O)(=O)C(F)(F)F)cc1` [Example 141, 1-[(2'-trifluoromethanesulfonamidobiphenyl-4-yl)methyl]-2-butyl-4-chloro-5-methoxymethylimidazole], the minimal effective dose at 10 mg/kg is less than 10 mg/kg and the minimal effective dose at 100 mg/kg was less than 100 mg/kg. For `CCCCc1nc(Cl)c(COC)n1Cc1ccc(C(=O)c2ccccc2C(=O)O)cc1` [Example 207], where the note is “tested as sodium salt”, the minimal effective dose at 10 mg/kg was less than 10 mg/kg and the minimal effective dose at 100 mg/kg was less than 100 mg/kg. As for `CCCCc1ncc(CO)n1Cc1ccc(OCc2ccccc2C(=O)O)cc1` [Example 193, 1-[4-(2-Carboxybenzyloxy)-benzyl] -2-butyl-5-hydroxymethylimidazole], the minimal effective dose at 10 mg/kg was less than 10 mg/kg and the minimal effective dose at 100 mg/kg is greater than 100 mg/kg. On the same counts, the results for `CCCCc1nc(Cl)c(CO)n1Cc1ccc(Sc2ccccc2C(=O)O)cc1` [Example 185] are less than 10 mg/kg and greater than 100 mg/kg.

With `CCCCc1nc(CO)c(Cl)n1Cc1ccc(C(=O)c2ccccc2C(=O)O)cc1` [Example 203], under “tested as sodium salt”, the minimal effective dose at 10 mg/kg is less than 10 mg/kg and the minimal effective dose at 100 mg/kg is less than 100 mg/kg. For the molecule `CCCc1nc(-c2ccccc2)c(C=O)n1Cc1ccc(-c2ccccc2C(=O)O)cc1` [Example 322], the minimal effective dose at 3 mg/kg was less than 3 mg/kg and the minimal effective dose at 30 mg/kg is less than 30 mg/kg.

The molecule `CCCCc1nc(Cl)c(CO)n1Cc1ccc(-c2ccccc2C(=O)NS(=O)(=O)c2ccccc2)cc1` [Example 318, 1-[(2'-(Benzenesulfonamidocarbonyl)biphenyl-4-yl)methyl]-2-butyl-4-chloro-5-hydroxymethylimidazole] returned a minimal effective dose at 10 mg/kg of less than 10 mg/kg and a minimal effective dose at 100 mg/kg greater than 100 mg/kg.

As to `CCCCc1nc(Cl)c(COC)n1Cc1ccc(NC(=O)c2c(Cl)ccc(Cl)c2C(=O)O)cc1` [Example 17], under “tested as sodium salt”, the minimal effective dose at 10 mg/kg was less than 10 mg/kg and the minimal effective dose at 100 mg/kg was greater than 100 mg/kg. On to `CCCCc1nc(Cl)c(C(=O)O)n1Cc1ccc(-c2ccccc2-c2nn[nH]n2)cc1` [Example 252], for which the minimal effective dose at 3 mg/kg is less than 3 mg/kg and the minimal effective dose at 30 mg/kg is less than 30 mg/kg.

What is called minimal effective dose is the smallest amount tested that counted as effective.
